Paper PMC12292862 (Biomedicines, 2025)
“Also recorded” adds a separate entry of the source.

Columns and labels:
rat paw tissue [1] = test: Histopathological examination of paw tissue (HE); format: in vivo; settings: carrageenan-injected paw; compounds 200 mg/kg i.p., indomethacin 10 mg/kg
Text: At the end of the experiments, the rats were subjected to anesthesia with chloroform and then sacrificed. Blood was obtained via heart puncture for biochemical analysis. Following the animals’ sacrifice, the paws were taken out, decalcified, and stored in a 10% formalin solution. To prepare the tissue samples, they were sliced into thicknesses of 5 µm. Hematoxylin and eosin dyes were used to create the histology slides, which were then examined using a photomicroscope (Meiji Techno®, Iruma, Japan) for pathological alterations. The presence of inflammation was documented. Protease/phosphatase inhibitor cocktail in cold phosphate-buffered saline (1:4) (pH 7, 0.01 mol/L) (Cat. No. PPC1010, Sigma-Aldrich) was used to homogenize each rat’s paw piece in a glass homogenizer. After filtering and centrifuging the resultant homogenate for five minutes at 5000× g, oxidative stress biomarkers like GSH, SOD, and MDA were measured. The trials were repeated three times.

[2] = tested on: carrageenan-induced rat paw edema; test: Carrageenan-induced paw edema; format: in vivo; settings: for inhibition of paw edema after 1 h / inhibition of paw edema after 2 h / inhibition of paw edema after 3 h: 200 mg/kg i.p.; for inhibition of paw edema after 1 h: 1 h after carrageenan; for inhibition of paw edema after 2 h: 2 h after carrageenan; for inhibition of paw edema after 3 h: 3 h after carrageenan; for inhibition of paw edema after 4 h: compounds 200 mg/kg i.p., indomethacin 10 mg/kg, 4 h after carrageenan
Text: Rats’ carrageenan-induced paw edema model was used to assess the novel synthesized drugs’ anti-inflammatory properties. A total of 180–190 g of male Wistar rats were used for the experiments. In the animal house at Sohag University in Sohag, Egypt, every animal was kept in careful laboratory conditions. After being weighed and divided into six groups at random, the animals are housed for a week to reduce stress and allow them to get used to the laboratory environment. The chemicals that were synthesized were administered intraperitoneally (i.p.) to rats at a dosage of 200 mg/kg. The control group received only vehicles. […] The rats were given a 0.2 mL sub-plantar injection of a 1% (w/v) suspension of carrageenan (made in PBS) in their right hind paw thirty minutes following the injection of synthesized compounds [33]. […] The % inhibition of paw edema was calculated by the following formula [34]:%Inhibition = ((Mean edema of control group − Mean edema of test compound)/(Mean edema of control group)) × 100.

rat paw tissue [3] = test: Histomorphometry lesion scores of paw tissue sections; format: in vivo; settings: vs carrageenan group; for inflammation scores: Figure 11A; for total lesion scores: Figure 11D
egg albumin = test: Egg albumin protein denaturation inhibition assay; settings: 50–1000 µg/mL; Figure 2B; result in words
Description: To determine the egg albumin protein denaturation inhibition assay, the previously mentioned approach was used. Egg albumin (0.2 mL), 2.8 mL of phosphate-buffered saline (pH 6.4), and 2 mL of synthesized compound solutions in various concentrations were added to 5 mL of reaction mixture for this experiment. […] The reaction solutions were heated to 37 °C for 15 min, then to 70 °C for 5 min. After cooling, the absorbance of the solutions was measured at 660 nm. The experiment was conducted in triplicate, and the percentage inhibition of denaturation of the protein was calculated using the following formula:%Inhibition = ((Absorbance Control − Absorbance Sample)/(Absorbance control)) × 100.

bovine serum albumin = bovine serum albumin (Bos taurus, UniProt P02769); test: Bovine serum albumin denaturation inhibition assay; settings: 50–1000 µg/mL; Figure 2A; result in words
Description: A bovine serum albumin assay was conducted using the previously mentioned technique. Synthesized compounds were dissolved in 2% Tween 80 saline solution (v/v) to create a solution at different doses of 50, 100, 200, 400, 800, and 1000 μg/mL. To prepare the test control sample (0.5 mL), 0.45 mL of 5% w/v bovine serum albumin was dissolved in 0.05 mL of distilled water. A product control solution was made by mixing 0.45 mL of Tween 80 with 0.50 mL of the test sample. 0.45 mL of bovine serum albumin and 0.50 mL of synthesized compounds made up the […] test solution. […] A pH of 6.3 was adjusted using 1 N HCl. Every solution was heated for 3 min at 60 °C after being kept at 37 °C for 20 min. Samples were then allowed to cool, and their absorbance at 660 nm was measured. Three duplicates of the procedure were carried out, and the percentage inhibition of denaturation of the bovine serum albumin was calculated using the following formula:%Inhibition = ((Absorbance Control − Absorbance Sample)/(Absorbance control)) × 100.

Chain of bovine serum albumin (P02769 25-607): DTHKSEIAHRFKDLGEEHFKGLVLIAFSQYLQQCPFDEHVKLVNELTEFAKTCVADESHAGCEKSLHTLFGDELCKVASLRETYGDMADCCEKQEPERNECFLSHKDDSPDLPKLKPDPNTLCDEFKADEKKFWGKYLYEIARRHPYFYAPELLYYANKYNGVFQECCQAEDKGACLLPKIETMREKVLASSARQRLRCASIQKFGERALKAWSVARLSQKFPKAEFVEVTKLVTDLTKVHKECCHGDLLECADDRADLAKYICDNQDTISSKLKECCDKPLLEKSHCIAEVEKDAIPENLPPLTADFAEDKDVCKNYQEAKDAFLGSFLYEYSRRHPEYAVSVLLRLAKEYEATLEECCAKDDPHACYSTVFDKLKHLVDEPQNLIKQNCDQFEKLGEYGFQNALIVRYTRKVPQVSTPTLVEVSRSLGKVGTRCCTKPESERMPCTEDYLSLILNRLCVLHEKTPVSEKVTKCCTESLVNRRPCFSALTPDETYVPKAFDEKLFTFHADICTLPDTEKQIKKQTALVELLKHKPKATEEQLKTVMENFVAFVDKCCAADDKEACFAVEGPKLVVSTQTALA

Structure (SMILES)	histopathological findings of paw tissue (HE) (rat paw tissue [1])	inhibition of paw edema after 1 h [2] [%]	inhibition of paw edema after 2 h [2] [%]	inhibition of paw edema after 3 h [2] [%]	inhibition of paw edema after 4 h [2] [%]	inflammation scores (rat paw tissue [3])	total lesion scores (rat paw tissue [3])	inhibition of egg albumin protein denaturation (egg albumin)	inhibition of bovine serum albumin denaturation (bovine serum albumin)	inflammation scores (rat paw tissue [3]; listed as compound 3)	edema scores (rat paw tissue [3]; Figure 11B)	vascular alteration scores (rat paw tissue [3]; Figure 11C)
NC1=NC2(CCCCCC2)n2nc(C(=O)Nc3ccc(S(N)(=O)=O)cc3)nc2N1 [Compound 1, 5′-Amino-N-(4-sulfamoylphenyl). -1′H-spiro[cycloheptane-1,7′-[1,2,4]triazolo[1,5-a][1,3,5] -triazine] -2′-carboxamide]	mild inflammatory dermal edema	53.6	65.74	78.52	96.31	significantly reduced inflammation scores	reduced total lesion scores significantly					
CC1(C)CC(=O)CC2(C1)N=C(N)Nc1nc(C(=O)Nc3ccc(S(N)(=O)=O)cc3)nn12 (centres unmarked) [Compound 2]	moderate edema				72.08			moderate inhibition; also recorded: superior percentage inhibition of protein denaturation	moderate inhibition; also recorded: superior percentage inhibition of protein denaturation			
NC1=NC2(c3ccccc3Cc3ccccc32)n2nc(C(=O)Nc3ccc(S(N)(=O)=O)cc3)nc2N1 [Compound 3]	normal dermis; also recorded: normal dermis without any lesion; also recorded: normal histological structure without edema or lesions	59.5	79.93	97.23	99.69	approaching those of the normal control group	reduced total lesion scores significantly; also recorded: comparable to the normal control group	highest protective effect; also recorded: superior percentage inhibition of protein denaturation	highest protective effect; also recorded: superior percentage inhibition of protein denaturation	significantly reduced inflammation scores	comparable to those of the control group	near-normal levels
